Measured values: ChEMBL document CHEMBL1137635, “Multiple antibiotics exert delayed effects against the Plasmodium falciparum apicoplast” (Antimicrob Agents Chemother, 2007)
Calls of active or inactive are those of the source. The rule behind the calls is not given here.

Experiments:
Plasmodium falciparum [1] = assay: Antimalarial activity as 2nd generation ring-stage chloroquine-sensitive Plasmodium falciparum 3D7 after 48 hrs by flow cytometry; assay type: functional, organism-based; settings: 3D7, 48 h
Plasmodium falciparum [2] = assay: Antimalarial activity as 3rd generation ring-stage chloroquine-sensitive Plasmodium falciparum 3D7 after 48 hrs dose then 48 hrs drug-free; assay type: functional, organism-based; settings: 3D7, 48 h
Plasmodium falciparum [3] = assay: Antimalarial activity as 2nd generation ring-stage chloroquine-resistant Plasmodium falciparum W2 after 48 hrs by flow cytometry; assay type: functional, organism-based; settings: W2, 48 h
Plasmodium falciparum [4] = assay: Antimalarial activity as 3rd generation ring-stage chloroquine-resistant Plasmodium falciparum W2 after 48 hrs dose then 48 hrs drug-free; assay type: functional, organism-based; settings: W2, 48 h, read-out: IC50
Plasmodium falciparum [5] = assay: Antimalarial activity as trophozoite arrest after 24 hrs against chloroquine-sensitive Plasmodium falciparum 3D7 infected human erythrocytes at 6 uM 96 hrs post infection; assay type: functional, organism-based
[6] = Tmax in patient with severe malaria at 200 mg, perorally; assay type: ADME, organism-based; settings: human, in vivo, po
Plasmodium falciparum [7] = assay: Antimalarial activity as 2nd generation parasitaemia after 48 hrs against chloroquine-sensitive Plasmodium falciparum 3D7 infected human erythrocytes at 6 uM 0-12 hrs post invasion; assay type: functional
Plasmodium falciparum [8] = assay: (§1) Antimalarial activity as 2nd generation parasitaemia after 48 hrs against chloroquine-sensitive Plasmodium falciparum 3D7 infected human erythrocytes at 6 uM 0-24 hrs post invasion; assay type: functional
Plasmodium falciparum [9] = assay: as §1; assay type: functional; remark: listed apart in the source
Plasmodium falciparum [10] = assay: Antimalarial activity as 2nd generation parasitaemia after 48 hrs against chloroquine-sensitive Plasmodium falciparum 3D7 infected human erythrocytes at 6 uM 0-48 hrs post invasion; assay type: functional
Plasmodium falciparum [11] = assay: Antimalarial activity as 2nd generation parasitaemia after 48 hrs against chloroquine-sensitive Plasmodium falciparum 3D7 infected human erythrocytes at 6 uM 12-24 hrs post invasion; assay type: functional
Plasmodium falciparum [12] = assay: Antimalarial activity as 2nd generation parasitaemia after 48 hrs against chloroquine-sensitive Plasmodium falciparum 3D7 infected human erythrocytes at 6 uM 12-36 hrs post invasion; assay type: functional
Plasmodium falciparum [13] = assay: Antimalarial activity as 2nd generation parasitaemia after 48 hrs against chloroquine-sensitive Plasmodium falciparum 3D7 infected human erythrocytes at 6 uM 12-48 hrs post invasion; assay type: functional
Plasmodium falciparum [14] = assay: Antimalarial activity as 2nd generation parasitaemia after 48 hrs against chloroquine-sensitive Plasmodium falciparum 3D7 infected human erythrocytes at 6 uM 24-36 hrs post invasion; assay type: functional
Plasmodium falciparum [15] = assay: Antimalarial activity as 2nd generation parasitaemia after 48 hrs against chloroquine-sensitive Plasmodium falciparum 3D7 infected human erythrocytes at 6 uM 24-48 hrs post invasion; assay type: functional
Plasmodium falciparum [16] = assay: Antimalarial activity as 2nd generation parasitaemia after 48 hrs against chloroquine-sensitive Plasmodium falciparum 3D7 infected human erythrocytes at 6 uM 36-48 hrs post invasion; assay type: functional

For `CO[C@H]1/C=C/O[C@@]2(C)Oc3c(C)c(O)c4c(O)c(c(/C=N/N5CCN(C)CC5)c(O)c4c3C2=O)NC(=O)/C(C)=C\C=C\[C@H](C)[C@H](O)[C@@H](C)[C@@H](O)[C@@H](C)[C@H](OC(C)=O)[C@@H]1C` [RIFAMPIN], the IC50 (Plasmodium falciparum [1]) was 2990 nM, the IC50 (Plasmodium falciparum [2]) was 2830 nM and the IC50 (Plasmodium falciparum [3]) was 274 nM. The IC50 (Plasmodium falciparum [4]) was 528 nM, the Activity (Plasmodium falciparum [5]) was “Active” and the Tmax [6] was 1 h. The Activity (Plasmodium falciparum [7]) was 65%, the Activity (Plasmodium falciparum [8]) was 16% and the Activity (Plasmodium falciparum [9]) was 14%. It also gave an Activity (Plasmodium falciparum [10]) of 15%, an Activity (Plasmodium falciparum [11]) of 36% and an Activity (Plasmodium falciparum [12]) of 13%. It also gave an Activity (Plasmodium falciparum [13]) of 13%, an Activity (Plasmodium falciparum [14]) of 49% and an Activity (Plasmodium falciparum [15]) of 25%. For the same molecule, the Activity (Plasmodium falciparum [16]) was 93%.
